Legend:
[1] = tested on: Phospho-Ser16 HSP20 in HEKB2 cells; assay: Ser16 phosphorylation of HSP20 in HEKB2 cells overexpressing HSP20 (Western blot); assay type: cell-based; settings: HEKB2 cells transfected with wt HSP20, isoprenaline 1 μM, indicated times
Procedure: FIG. 1. The phosphorylation of HSP20 at Ser16 is modulated by PDE4 activity in HEKB2 cells. A, HEKB2 cells overexpressing HSP20 or HSP20 ser16-Ala mutant were treated with isoprenaline for indicated times. Cellular lysates were blotted for HSP20 and Phospho-Ser16 HSP20. B, HEKB2 cells overexpressing HSP20 were treated with isoprenaline for indicated times, Cellular lysates were blotted for HSP20 and Phospho-Ser16 HSP20. C, HEKB2 cells overexpressing HSP20 were treated with isoprenaline for indicated times following pre-treatment with the PDE4-specific inhibitor, rolipram. Cellular lysates were blotted for HSP20 and Phospho-Ser16 HSP20. D, Quantifications of data from FIGS. 1B and 1C (n=4). * Denotes significance at a level p<0.05 E, Lysate from untransfected HEKB2 cells was blotted for HSP20 and Phospho-Ser16 HSP20.
(§1) HEK293B2 cells are a stable cell line overexpressing the GFP-tagged β2AR were cultured as previously described^48. HEK293B2 cells were transiently transfected with wild type HSP20 or a phosphorylation defective HSP20 (S16A) or a phosphorylation mimic HSP20 (S16D). Neonatal cardiac myocytes were prepared and cultured as previously described^30. Cell lysis, immunopurification and western blotting was done as described before by us in some detail^48. Briefly, HEK 293 cells were transiently transfected with wild-type HSP20 by using Polyfect Transfection Reagent (Qiagen). Transfected HEK 293 cells were treated with 10 μM bs906 or 10 μM control peptide for 0, 15, 30, 60 and 120 min. Control and treated transfected HEK 293 cells were then washed thrice with ice cold PBS (phosphate buffered saline) before cellular lysates were prepared. Cellular lysates were prepared in lysis buffer containing 25 mM Hepes, pH 7.5, 2.5 mM EDTA, 50 mM NaCl, 50 mM NaF, […], 10% (v/v) glycerol, 1% (v/v) Triton X-100 and Complete™ EDTA-free protease inhibitor cocktail tablets (Roche). Protein concentration of lysates were determined using the Bradford assay and all samples were equalised for protein concentration. Proteins were separated by SOS/PAGE (4-12% Bis-Tris gels) and transferred onto nitrocellulose membranes for Western blotting. Antibodies were used to detect phospho-proteins and native proteins in lysates from control and treated cells
In contrast to this, when we transfected these cells with a phospho-null mutant form, Ser16Ala-Hsp20, then no such change was observed (FIG. 1A). In order to evaluate whether PDE4 activity played a role in regulating this phosphorylation process in Hsp20-transfected HEKB2 cells, cells that had either been pre-treated or not with the PDE4 selective inhibitor rolipram were subsequently challenged with isoprenaline (1 μM) (FIGS. 1B and C). […] Endogenous levels of phospho-HSP20 or HSP20 were not detectable in HEKB2 cells (FIG. 1E).

[2] = tested on: Phospho-Ser16 HSP20 in neonatal cardiac myocytes; assay: Ser16 phosphorylation of endogenous HSP20 in neonatal cardiac myocytes (Western blot); assay type: cell-based, rat; settings: neonatal cardiomyocytes, isoprenaline challenge
Procedure: FIG. 2. The phosphorylation of HSP20 at Ser16 is modulated by PDE4 activity in cardiac myocytes. A, Neonatal cardiac myocytes were treated with isoprenaline for indicated times with or without pre-treatment with the PDE4-specific inhibitor, rolipram. Cellular lysates were blotted for HSP20 and Phospho-Ser16 HSP20. B, Quantifications of data from FIG. 2A (n=3). * Denotes significance at a level p<0.05 over iso treatment.
as §1
To determine whether inhibition of PDE4 activity had similar effects on endogenous phospho-HSP20 levels in heart cells, similar experiments were undertaken using neonatal cardiomyocytes (FIG. 2).

PDE4 = PDE4 activity associated with HSP20 immunoprecipitates from cardiac myocytes; assay type: cell-based, rat; settings: isoprenaline 1 μM
Procedure: FIG. 3. HSP20 forms a complex with members of the PDE4 family of phosphodiesterases. A (upper panel), Immunopurification (Ips) of HSP20 from cellular lysates isolated from myocytes following treatment with Isoprenaline (1 μM) were blotted for the presence of PDE4D isoforms. B, (lower panel) The PDE4 activity associated with HSP20 Ips was determined. C, Members of the PDE4D sub-family of PDE4s were co-expressed with HSP20 in HEKB2 cells. HSP20 Ips were probed for PDE4D isoforms.
PDE activity was measured using a radioactive cAMP hydrolysis assay that has been described previously^56. [8-^3H]adenosine cyclic-3,5′-mono-phosphate was sourced from Amersham Biosciences (Little Chalfont, U.K.) and cyclic-3′,5′-mono-phosphate from Sigma.
Immunopurification (Ips) of HSP20 from cardiac myocytes were screened for associating PDE4 by Western blotting analysis and cAMP PDE assay (FIG. 3A).

[3] = tested on: neonatal cardiac myocytes; assay: Cardiac myocyte cell size, manual cross-sectional area; assay type: cell-based, rat; settings: 24 hour isoprenaline 10 μM, 30 min pre-treatment with 10 μM peptide
Procedure: (§2) FIG. 7. Peptide disruption of the PDE4D-HSP20 complex attenuates the hypertrophic response triggered by constant […]-agonist treatment. A, Upper panel. The area covered by isolated cardiac myocytes was used as a measure of cell size. Lower panel, Graphical depiction of the mean areas (N=100) of cells following 24 hours of indicated treatments. B, impedance measurements were used to calculate continuous normalised cell index using exCELLigence technology Normalised mean (n=4) cell index after 24 hours of indicated treatments.
Cardiomyocytes were plated out on gelatin (Sigma) pre-coated 6-well plates and placed in an incubator at 37° C. and an atmosphere of 5% CO2. After 24 h the cardiomyocytes were cultured in a serum-free condition for 48 h before experiments. The cardiomyocytes were then challenged for 24 h with either 10 μM isoprenaline alone or isoprenaline following a 30 min pre-treatment with 10 μM rolipram, 10 μM bs906 or 10 μM control peptide. Thereafter, cell size was determined on phase-contrast microscope. […] from randomly selected microscope images (400×) were captured digitally and analysed. Cross-sectional area was determined by the following formula: cross-sectional area=(radius)^2×π. Values are expressed as means±SE of five separate culture preparations. A f-test was performed to compare the two groups, and the P values are indicated.

[4] = tested on: neonatal cardiac myocytes; assay: Cardiac myocyte size by xCELLigence impedance (normalised cell index); assay type: cell-based, rat; settings: 24 hour isoprenaline 10 μM, 30 min pre-treatment with 10 μM peptide
Procedure: as §2
The E-Plate 96 (Roche) was used for these experiments^45. This comprises a 96-well plate with integral sensor electrode arrays to measure cell impedance. […] E-plate 96 is a 96-well microtiter plate with incorporated gold cell sensor arrays in the bottom, which allows impedance inside each well to be monitored and assayed in real time. […] The impedance measured between electrodes in an individual well depends on electrode geometry, ion concentration in the well and whether or not cells are attached to the electrodes^45. In the absence of cells, electrode impedance is mainly determined by the ion environment both at the electrode/solution interface and in the bulk solution. […] Small changes in impedance can also be recorded when cells temporally change shape or size in response to agonists^46,57. […]

CC(C)NCC(O)c1ccc(O)c(O)c1 (centres unmarked) [isoprenaline]
phosphorylation of Hsp20 at Ser16 [1]: time dependent phosphorylation of Hsp20 at Ser16
endogenous phospho-HSP20 levels [2]: induced an increase in endogenous phospho-HSP20 levels
increase in PDE4 activity associated with HSP20 immunoprecipitates vs untreated lysates (PDE4): 2.5 fold
cell size (cross-sectional area) of cardiac myocytes [3]: marked increase in cell size
cell size (normalised cell index, impedance) of cardiac myocytes [4]: marked increase in cell size

Reference: patent US20130209439A1, “INHIBITORS OF PDE4 BINDING TO HSP20” (THE UNIVERSITY COURT OF THE UNIVERSITY OF GLASGOW, priority 2010, published 2013)
